Format in all cases: biochemical
Assay [1] concerns the target T1, Recombinant human FAP (Homo sapiens, UniProt Q12884).
T1 construct: purchased R&D systems
T1 sequence (Q12884 1-760): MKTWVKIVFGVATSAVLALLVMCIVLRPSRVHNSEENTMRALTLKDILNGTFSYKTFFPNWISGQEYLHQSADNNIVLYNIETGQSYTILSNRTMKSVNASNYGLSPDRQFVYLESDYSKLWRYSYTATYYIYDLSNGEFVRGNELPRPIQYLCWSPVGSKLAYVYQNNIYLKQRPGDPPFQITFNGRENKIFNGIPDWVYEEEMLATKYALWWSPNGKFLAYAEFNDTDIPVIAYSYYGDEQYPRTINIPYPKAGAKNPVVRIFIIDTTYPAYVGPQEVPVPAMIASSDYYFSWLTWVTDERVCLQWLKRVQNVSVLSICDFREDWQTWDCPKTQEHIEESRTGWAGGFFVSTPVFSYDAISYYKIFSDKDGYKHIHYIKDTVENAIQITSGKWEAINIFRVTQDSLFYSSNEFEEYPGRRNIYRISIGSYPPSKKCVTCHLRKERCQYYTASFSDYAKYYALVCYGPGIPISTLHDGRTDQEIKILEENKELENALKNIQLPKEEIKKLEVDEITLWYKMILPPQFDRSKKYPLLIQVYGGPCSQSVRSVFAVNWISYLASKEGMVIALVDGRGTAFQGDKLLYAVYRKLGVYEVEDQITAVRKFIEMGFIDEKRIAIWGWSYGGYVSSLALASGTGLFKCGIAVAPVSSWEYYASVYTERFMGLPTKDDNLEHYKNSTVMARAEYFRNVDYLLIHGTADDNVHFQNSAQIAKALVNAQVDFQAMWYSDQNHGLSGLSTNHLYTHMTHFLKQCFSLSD
The experiment in a line: FAP inhibition, fluorogenic substrate Z-Gly-Pro-AMC. The method in brief:
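Eight-point compound dilutions (≤0.1% DMSO) were incubated at 25° C with 10 ng recombinant human FAP in Tris pH 7.5/1 M NaCl/BSA buffer and Z-Gly-Pro-AMC. Inhibition was taken as % drop in fluorescence rate (380/460 nm) against uninhibited control; IC50 came from a four-parameter logistic fit.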

Another assay concerns the target T2, recombinant human DPP7 (Homo sapiens, UniProt Q9UHL4).
T2 construct: purchased R&D Systems
The assay can be described thus: DPP7 inhibition, fluorogenic substrate Lys-Pro-AMC. The method in brief: (§1)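 Inhibitors are titrated in an 8-point series into the enzyme's assay buffer (DMSO no more than 0.5%). Substrate cleavage at 25 °C is followed by fluorescence, excitation 380 nm and emission 460 nm. IC50 values come from a four-variable logistic model.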

The next assay addresses T3, recombinant human DPP8 (Homo sapiens, UniProt Q6V1X1).
T3 construct: purchased PBS Bioscience
The assay can be described thus: DPP8 inhibition, fluorogenic substrate Z-Ala-Pro-AMC. The method in brief:
as §1

Assay [2] deals with T1, Recombinant human FAP. The assay can be described thus: FAP FRET assay, FGF21-sequence FRET peptide substrate. To be noted: FRET peptide with human FGF21 sequence, 6 μM, 37° C. In outline: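 FRET peptide bearing human FGF21 sequence (6 μM final) cleaved by 10 ng recombinant human FAP at 37° C in HEPES pH 7.2 buffer with NaCl, BSA and EDTA, DMSO up to 0.1%. Signal-rate decrease versus uninhibited control fitted to a four-variable logistic model for IC50.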

The target in the next assay is DPP4 (Homo sapiens, UniProt P27487). The assay can be described thus: DPP4 inhibition, fluorogenic substrate H-Gly-Pro-AMC. Details: purchased R&D Systems.
In the next assay the target is T4, recombinant human DPP9 (Homo sapiens, UniProt Q86TI2).
T4 construct: purchased R&D Systems
The experiment in a line: DPP9 inhibition, fluorogenic substrate H-Gly-Pro-AMC. The method in brief:
as §1

A further assay concerns the target T5, recombinant human PREP (Homo sapiens, UniProt P48147).
T5 construct: purchased R&D System
T5 sequence (P48147 1-710): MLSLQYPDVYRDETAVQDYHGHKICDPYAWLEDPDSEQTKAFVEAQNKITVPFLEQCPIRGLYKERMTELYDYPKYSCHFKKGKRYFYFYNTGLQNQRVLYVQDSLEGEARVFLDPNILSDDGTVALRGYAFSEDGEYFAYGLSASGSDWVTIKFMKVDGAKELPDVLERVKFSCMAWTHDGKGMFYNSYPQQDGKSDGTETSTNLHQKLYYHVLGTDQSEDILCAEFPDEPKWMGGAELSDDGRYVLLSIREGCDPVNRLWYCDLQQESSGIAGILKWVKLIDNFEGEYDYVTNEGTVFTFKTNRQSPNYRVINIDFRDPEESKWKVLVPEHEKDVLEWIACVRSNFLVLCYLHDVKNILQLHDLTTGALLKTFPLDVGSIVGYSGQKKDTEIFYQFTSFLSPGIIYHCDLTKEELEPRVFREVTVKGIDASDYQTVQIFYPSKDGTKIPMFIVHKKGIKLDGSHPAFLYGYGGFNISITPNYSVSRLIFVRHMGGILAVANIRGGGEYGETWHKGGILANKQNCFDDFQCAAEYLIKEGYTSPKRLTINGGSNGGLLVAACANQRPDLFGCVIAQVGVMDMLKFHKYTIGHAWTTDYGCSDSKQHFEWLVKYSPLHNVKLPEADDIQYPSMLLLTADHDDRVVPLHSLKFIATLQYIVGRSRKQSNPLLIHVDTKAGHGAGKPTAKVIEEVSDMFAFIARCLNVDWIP
The assay can be described thus: PREP inhibition, fluorogenic substrate Z-Gly-Pro-AMC. To be noted: Inhibitory Activity (IC50, nM) PREP. In outline:
as §1

The mark [3] stands for this setting: recombinant human FAP, substrate Z-Gly-Pro-AMC.
Setting [4] is: 25° C., Z-Gly-Pro-AMC substrate.
Where [5] appears, read: 25° C., Z-Ala-Pro-AMC substrate.
Setting [6] is: 25° C., H-Gly-Pro-AMC substrate.

The IC50 is the concentration at which inhibition is half-maximal.

Read-outs that look alike come from different tables or passages of the source.

T3 sequence (Q6V1X1 whole entry): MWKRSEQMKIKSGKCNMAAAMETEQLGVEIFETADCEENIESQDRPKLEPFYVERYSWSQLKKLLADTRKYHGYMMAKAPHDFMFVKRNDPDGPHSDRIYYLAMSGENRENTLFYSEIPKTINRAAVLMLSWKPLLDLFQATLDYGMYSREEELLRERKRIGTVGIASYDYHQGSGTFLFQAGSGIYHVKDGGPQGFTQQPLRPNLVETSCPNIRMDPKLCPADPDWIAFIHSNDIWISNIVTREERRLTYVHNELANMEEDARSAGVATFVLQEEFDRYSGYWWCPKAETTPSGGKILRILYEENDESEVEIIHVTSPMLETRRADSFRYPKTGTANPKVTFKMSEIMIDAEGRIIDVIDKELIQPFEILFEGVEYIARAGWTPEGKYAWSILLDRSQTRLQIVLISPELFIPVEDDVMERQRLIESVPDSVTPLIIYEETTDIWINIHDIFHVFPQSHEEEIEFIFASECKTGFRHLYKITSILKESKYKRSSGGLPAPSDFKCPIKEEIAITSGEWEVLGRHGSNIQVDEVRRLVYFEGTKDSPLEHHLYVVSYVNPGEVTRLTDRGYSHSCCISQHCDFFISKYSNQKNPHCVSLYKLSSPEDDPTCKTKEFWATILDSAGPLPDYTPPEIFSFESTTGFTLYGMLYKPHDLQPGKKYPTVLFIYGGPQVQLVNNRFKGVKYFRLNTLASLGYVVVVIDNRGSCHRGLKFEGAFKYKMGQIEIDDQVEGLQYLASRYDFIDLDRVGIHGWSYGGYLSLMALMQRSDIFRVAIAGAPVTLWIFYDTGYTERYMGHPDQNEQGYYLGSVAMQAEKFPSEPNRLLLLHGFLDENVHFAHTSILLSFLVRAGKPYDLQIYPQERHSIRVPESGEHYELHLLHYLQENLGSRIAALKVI
T4 sequence (Q86TI2 whole entry): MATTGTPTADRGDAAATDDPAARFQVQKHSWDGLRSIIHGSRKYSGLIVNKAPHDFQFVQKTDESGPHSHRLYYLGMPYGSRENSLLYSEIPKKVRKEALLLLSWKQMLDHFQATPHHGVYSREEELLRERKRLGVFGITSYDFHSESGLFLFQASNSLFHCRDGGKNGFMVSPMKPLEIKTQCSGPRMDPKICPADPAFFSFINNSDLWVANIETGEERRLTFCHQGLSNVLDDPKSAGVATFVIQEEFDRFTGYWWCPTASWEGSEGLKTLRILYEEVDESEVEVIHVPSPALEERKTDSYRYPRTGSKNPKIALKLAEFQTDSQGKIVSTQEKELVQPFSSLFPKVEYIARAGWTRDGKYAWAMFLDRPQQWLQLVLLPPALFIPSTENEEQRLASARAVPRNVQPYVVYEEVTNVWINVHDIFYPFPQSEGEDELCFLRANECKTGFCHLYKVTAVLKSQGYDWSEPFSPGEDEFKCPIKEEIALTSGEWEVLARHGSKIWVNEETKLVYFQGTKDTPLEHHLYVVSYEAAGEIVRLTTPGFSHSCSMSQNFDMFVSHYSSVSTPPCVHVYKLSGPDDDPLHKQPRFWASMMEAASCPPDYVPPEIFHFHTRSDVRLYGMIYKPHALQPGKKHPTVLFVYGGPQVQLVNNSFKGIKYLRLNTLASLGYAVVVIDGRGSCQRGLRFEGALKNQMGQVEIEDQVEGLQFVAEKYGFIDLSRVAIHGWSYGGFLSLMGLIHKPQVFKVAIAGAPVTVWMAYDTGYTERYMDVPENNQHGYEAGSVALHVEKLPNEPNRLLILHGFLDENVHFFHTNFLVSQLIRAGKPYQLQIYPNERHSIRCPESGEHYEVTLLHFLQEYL
Sequence of DPP4 (P27487 whole entry): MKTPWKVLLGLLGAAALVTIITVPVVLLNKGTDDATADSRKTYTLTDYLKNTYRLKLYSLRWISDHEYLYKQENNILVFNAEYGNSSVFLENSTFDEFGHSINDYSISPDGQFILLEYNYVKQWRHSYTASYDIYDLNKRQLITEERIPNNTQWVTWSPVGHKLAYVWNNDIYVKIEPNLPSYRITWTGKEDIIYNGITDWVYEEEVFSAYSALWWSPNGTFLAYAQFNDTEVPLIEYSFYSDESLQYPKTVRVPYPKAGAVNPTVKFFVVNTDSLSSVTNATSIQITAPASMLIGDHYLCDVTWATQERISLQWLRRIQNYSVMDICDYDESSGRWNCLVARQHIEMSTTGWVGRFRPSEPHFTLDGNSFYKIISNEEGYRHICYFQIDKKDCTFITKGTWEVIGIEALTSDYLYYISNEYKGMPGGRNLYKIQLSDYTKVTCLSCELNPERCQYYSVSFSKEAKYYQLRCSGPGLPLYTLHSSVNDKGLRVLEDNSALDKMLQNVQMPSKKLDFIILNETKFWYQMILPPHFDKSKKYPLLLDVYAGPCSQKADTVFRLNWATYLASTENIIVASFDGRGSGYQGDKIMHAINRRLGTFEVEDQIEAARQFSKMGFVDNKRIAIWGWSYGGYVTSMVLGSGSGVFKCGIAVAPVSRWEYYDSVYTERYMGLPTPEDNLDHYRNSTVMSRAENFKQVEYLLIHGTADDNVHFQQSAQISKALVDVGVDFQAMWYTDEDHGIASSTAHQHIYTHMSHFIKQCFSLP

Take `N#C[C@@H]1C[C@H](F)CN1C(=O)CN1CC[C@H](Nc2ccc(F)c3ncccc23)C1` [Example 264, (2S,4S)-4-fluoro-1-[2-[(3S)-3-[(8-fluoro-5-quinolyl)amino]pyrrolidin-1-yl]acetyl]pyrrolidine-2-carbonitrile]: the half-inhibitory concentration (IC50) stood at 1.3 nM at Recombinant human FAP [1] (setting [3]); 2270 nM on recombinant human DPP7 (recombinant human DPP7); 3600 nM at recombinant human DPP8 (recombinant human DPP8); 2.4 nM on Recombinant human FAP [2]; 1040 nM on DPP4 (recombinant human DPP4).

As for `N#C[C@@H]1CC(F)(F)CN1C(=O)CN1CC[C@H](Nc2ccc(-c3ccccc3)cc2)C1` [Example 14, (S)-1-(2-((S)-3-([1,1′-biphenyl]-4-ylamino)pyrrolidin-1-yl)acetyl)-4,4-difluoropyrrolidine-2-carbonitrile], the concentration for half-maximal inhibition (IC50) on Recombinant human FAP [1] (setting [4]) was 18.7 nM; on recombinant human DPP7 it was 126 nM; at recombinant human DPP8 (setting [5]), 676 nM; at recombinant human DPP9 (setting [6]), 11100 nM; on recombinant human PREP (setting [4]) it was greater than 100000 nM; on DPP4 (setting [6]), greater than 1000 nM.

`N#C[C@@H]1C[C@H](F)CN1C(=O)CN1CC[C@H](Nc2cccc3ncc(Cl)cc23)C1` [Example 256, (2S,4S)-4-fluoro-1-[2-[(3S)-3-[(3-chloro-5-quinolyl)amino]pyrrolidin-1-yl]acetyl]pyrrolidine-2-carbonitrile]: the concentration for half-maximal inhibition (IC50) is 0.8 nM on Recombinant human FAP [1] (setting [3]); 1790 nM at recombinant human DPP7 (recombinant human DPP7); 3350 nM on recombinant human DPP8 (recombinant human DPP8); 6960 nM on recombinant human DPP9 (recombinant human DPP9); 603 nM on recombinant human PREP (recombinant human PREP); 1880 nM on DPP4 (recombinant human DPP4).

Consider `N#C[C@@H]1C[C@H](F)CN1C(=O)CN1CCC(Oc2nccc3ccccc23)CC1` [Example 419, (2S,4S)-4-fluoro-1-[2-[4-(1-isoquinolyloxy)-1-piperidyl]acetyl]pyrrolidine-2-carbonitrile], for which the IC50 at Recombinant human FAP [1] (setting [3]) was 8.1 nM; on recombinant human DPP7 (recombinant human DPP7), 2020 nM; on recombinant human DPP8 (recombinant human DPP8), 9390 nM; at recombinant human DPP9 (recombinant human DPP9), 23000 nM; at recombinant human PREP (recombinant human PREP), 1100 nM; on DPP4 (recombinant human DPP4), greater than 10000 nM.

As for `CN(c1ccc2ncccc2c1)C1CCN(CC(=O)N2CCC[C@H]2C#N)CC1` [Example 310, (2S)-1-[2-[4-[methyl(6-quinolyl)amino]-1-piperidyl]acetyl]pyrrolidine-2-carbonitrile], the half-maximal inhibitory concentration (IC50) at Recombinant human FAP [1] (setting [3]) was 5.3 nM; on recombinant human DPP7 (recombinant human DPP7), 4330 nM; at recombinant human DPP8 (recombinant human DPP8), greater than 100000 nM; at recombinant human DPP9 (recombinant human DPP9) it was 66400 nM; on recombinant human PREP (recombinant human PREP) it was 740 nM; on DPP4 (recombinant human DPP4) it was greater than 10000 nM.

As for `COc1cccc2c(OC3CCN(CC(=O)N4C[C@@H](F)C[C@H]4C#N)CC3)cc(C(F)(F)F)nc12` [Example 415, (2S,4S)-4-fluoro-1-[2-[4-[[8-methoxy-2-(trifluoromethyl)-4-quinolyl]oxy]-1-piperidyl]acetyl]pyrrolidine-2-carbonitrile], the half-maximal inhibitory concentration (IC50) on Recombinant human FAP [1] (setting [3]) is 6.4 nM; on recombinant human DPP7 (recombinant human DPP7), 13500 nM; on recombinant human DPP8 (recombinant human DPP8), 16500 nM; at recombinant human DPP9 (recombinant human DPP9) it was 39400 nM; on recombinant human PREP (recombinant human PREP) it was 1410 nM; at DPP4 (recombinant human DPP4), greater than 10000 nM.

For `N#C[C@@H]1C[C@H](F)CN1C(=O)CN1CCC(Nc2ccc([N+](=O)[O-])c3cnccc23)CC1` [Example 356, (2S,4S)-4-fluoro-1-[2-[4-[(8-nitro-5-isoquinolyl)amino]-1-piperidyl]acetyl]pyrrolidine-2-carbonitrile], the 50% inhibitory concentration (IC50) on Recombinant human FAP [1] (setting [3]) came out at 3.7 nM; on recombinant human DPP7 (recombinant human DPP7) it was 2050 nM; at recombinant human DPP8 (recombinant human DPP8), 953 nM; at recombinant human DPP9 (recombinant human DPP9) it was 741 nM; on recombinant human PREP (recombinant human PREP), 4980 nM; at DPP4 (recombinant human DPP4) it was 4020 nM.

On to `N#C[C@@H]1C[C@H](F)CN1C(=O)CN1CC[C@H](Nc2cc(F)cc3ncccc23)C1` [Example 269, (2S,4S)-4-fluoro-1-[2-[(3S)-3-[(7-fluoro-5-quinolyl)amino]pyrrolidin-1-yl]acetyl]pyrrolidine-2-carbonitrile], for which the IC50 came out at 1.2 nM at Recombinant human FAP [1] (setting [3]); 812 nM on recombinant human DPP7 (recombinant human DPP7); 7180 nM at recombinant human DPP8 (recombinant human DPP8); 4920 nM on recombinant human DPP9 (recombinant human DPP9); 2310 nM at recombinant human PREP (recombinant human PREP); 2840 nM at DPP4 (recombinant human DPP4).

As for `N#C[C@@H]1CC(F)(F)CN1C(=O)CN1CC[C@H](Nc2ccccc2-c2ccccc2)C1` [Example 13, (S)-1-(2-((S)-3-([1,1′-biphenyl]-2-ylamino)pyrrolidin-1-yl)acetyl)-4,4-difluoropyrrolidine-2-carbonitrile], the 50% inhibitory concentration (IC50) is 24.6 nM on Recombinant human FAP [1] (setting [4]); 243 nM at recombinant human DPP7; 163 nM on recombinant human DPP8 (setting [5]); 56500 nM at recombinant human DPP9 (setting [6]); greater than 100000 nM at recombinant human PREP (setting [4]); greater than 1000 nM on DPP4 (setting [6]).

Turning to `COc1ccc(NC2CCN(CC(=O)N3CCC[C@H]3C#N)CC2)c2cccnc12` [Example 125, (S)-1-(2-(4-((8-methoxyquinolin-5-yl)amino)piperidin-1-yl)acetyl)pyrrolidine-2-carbonitrile], the IC50 is 5.5 nM on Recombinant human FAP [1] (setting [4]); 5550 nM on recombinant human DPP7; 33700 nM at recombinant human DPP8 (setting [5]); greater than 100000 nM at recombinant human DPP9 (setting [6]); 28900 nM on recombinant human PREP (setting [4]); greater than 10000 nM against DPP4 (setting [6]).

Turning to `N#C[C@@H]1C[C@H](F)CN1C(=O)CN1CC[C@H](Nc2cc(C(F)(F)F)cc3ncccc23)C1` [Example 258, (2S,4S)-4-fluoro-1-[2-[(3S)-3-[[7-(trifluoromethyl)-5-quinolyl]amino]pyrrolidin-1-yl]acetyl]pyrrolidine-2-carbonitrile], the half-inhibitory concentration (IC50) at Recombinant human FAP [1] (setting [3]) is 1 nM; on recombinant human DPP7 (recombinant human DPP7), 1390 nM; at recombinant human DPP8 (recombinant human DPP8) it was greater than 100000 nM; at recombinant human DPP9 (recombinant human DPP9), 7970 nM; at recombinant human PREP (recombinant human PREP), 1280 nM; on DPP4 (recombinant human DPP4), 1830 nM.

As to `N#C[C@@H]1C[C@H](F)CN1C(=O)CN1CC[C@H](Nc2cncc3ccoc23)C1` [Example 28, (2S,4S)-4-fluoro-1-(2-((S)-3-(furo[3,2-c]pyridin-7-ylamino)pyrrolidin-1-yl)acetyl)pyrrolidin-2-carbonitrile], the 50% inhibitory concentration (IC50) was 1.82 nM at Recombinant human FAP [1] (setting [4]); 346 nM on recombinant human DPP7; 18600 nM on recombinant human DPP8 (setting [5]); 8240 nM on recombinant human DPP9 (setting [6]); 6600 nM on recombinant human PREP (setting [4]); 2630 nM against DPP4 (setting [6]).

`N#C[C@@H]1C[C@H](F)CN1C(=O)CN1CCC(Oc2ccnc3ccc(F)cc23)CC1` [Example 126, (2S,4S)-4-fluoro-1-(2-(4-((6-fluoroquinolin-4-yl)oxy)piperidin-1-yl)acetyl)pyrrolidine-2-carbonitrile]: the IC50 at Recombinant human FAP [1] (setting [4]) turned out to be 0.84 nM; at recombinant human DPP7 it was 10400 nM; at recombinant human DPP8 (setting [5]), 16400 nM; on recombinant human DPP9 (setting [6]) it was 11000 nM; on recombinant human PREP (setting [4]) it was 1130 nM; against DPP4 (setting [6]), 7960 nM.

Values taken from patent US11655235B2, “Pyrrolidine and piperidine compounds” (YUHAN CORPORATION, priority 2019, dated 2023).
